Experiments:
human EDG-1 (S1P1) = target: T1, human EDG-1 (S1P1) (Homo sapiens, UniProt P21453); assay: GTP [γ-35S] binding assay, membranes from CHO cells expressing human EDG-1; type: biochemical; settings: EDG-1 GTP [γ-35S] binding, CHO cell membranes
T1 construct: expressed in transfected cells
Description: A. In Vitro: GPCR Activation Assay Measuring GTP [γ-^35S] Binding to Membranes Prepared from Cho Cells Expressing Human EDG Receptors
EDG-1 (S1P1) GTP [γ-^35S] binding assay: Homogenized membranes are prepared from CHO cell clones stably expressing a human EDG-1 N-terminal c-myc tag. Cells are grown in suspension in two 850 cm^2 roller bottles for three or fours days before harvesting. The cells are centrifuged down, washed once with cold PBS, and resuspended in ≦20 ml of Buffer A (20 mM HEPES, pH 7.4, 10 mM EDTA, EDTA-free complete protease inhibitor cocktail [1 tablet/25 ml]). The cell suspension is homogenized on ice, using a Polytron homogenizer at 30000 rpm at three intervals of 15 seconds each. The homogenate is first centrifuged at 2000 rpm on a tabletop low speed centrifuge for 10 minutes. The supernatant, after passing through a cell strainer, is then re-centrifuged at 50,000×g for 25 minutes at 4° C. The pellet is resuspended into buffer B (15% glycerol, 20 mM HEPES, pH 7.4, 0.1 mM EDTA, EDTA-free complete protease inhibitor cocktail [1 tablet/10 ml]). Protein concentration of the prep is determined using the BCA Protein Assay kit (Pierce) using BSA as standard. The membranes are aliquoted and kept frozen at −80° C.
Solutions of test compounds ranging from 10 mM to 0.01 nM are prepared in DMSO. S1P is diluted in 4% BSA solution as positive controls. […]

blood lymphocytes = assay: Measurement of circulating lymphocytes (blood lymphocyte depletion) in mice; type: in vivo, Mice (C57bl/6); settings: Mus musculus, oral gavage, blood collected 6 and 24 hours after administration, read-out: ED50, effective dose required displaying 50% of blood lymphocyte depletion
Description: C. In Vivo: Screening Assays for Measurement of Blood Lymphocyte Depletion and Assessment of Heart Effect
Measurement of circulating lymphocytes: Compounds are dissolved in DMSO and diluted to obtain a final concentration of 4% DMSO (v/v, final concentration) and then further diluted in a constant volume of Tween80 25%/H2O, v/v. Tween80 25%/H2O (200 μl), 4% DMSO, and FTY720 (10 μg) are included as negative and positive controls, respectively. Mice (C57bl/6 male, 6-10 week-old) are administered 250-300 μL of compound solution orally by gavages under short isoflurane anesthesia.
Blood is collected from the retro-orbital sinus 6 and 24 hours after drug administration under short isoflurane anesthesia. Whole blood samples are subjected to hematology analysis. Peripheral lymphocyte counts are determined using an automated analyzer. Subpopulations of peripheral blood lymphocytes are stained by fluorochrome-conjugated specific antibodies and analyzed using a fluorescent activating cell sorter (Facscalibur). Two mice are used to assess the lymphocyte depletion activity of each compound screened. The result is an ED50, which is defined as the effective dose required displaying 50% of blood lymphocyte depletion.

T1 sequence (P21453 whole entry): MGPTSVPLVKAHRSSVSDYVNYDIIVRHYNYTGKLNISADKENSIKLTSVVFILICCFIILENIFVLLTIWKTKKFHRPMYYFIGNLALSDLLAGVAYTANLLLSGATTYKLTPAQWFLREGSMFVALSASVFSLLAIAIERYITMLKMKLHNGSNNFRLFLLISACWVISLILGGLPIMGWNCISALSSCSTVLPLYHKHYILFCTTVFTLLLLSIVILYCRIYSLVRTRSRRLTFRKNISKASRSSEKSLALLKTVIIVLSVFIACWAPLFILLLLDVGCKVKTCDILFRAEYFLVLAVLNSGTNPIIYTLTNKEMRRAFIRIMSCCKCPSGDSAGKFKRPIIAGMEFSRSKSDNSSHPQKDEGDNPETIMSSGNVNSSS

Row | Compound | EC50 (human EDG-1 (S1P1)) | ED50 (blood lymphocytes)
1 | CCc1cc(/C(C)=N/OCc2ccc(C3CCCCC3)c(C(F)(F)F)c2)ccc1CNCCC(=O)O [Example 2, 3-{4-[1-(4-Cyclohexyl-3-trifluoromethyl-benzyloxyimino)-ethyl]-2-ethyl-benzylamino}-propionic acid] | 800 pM | 0.07 mg/kg
2 | CCc1cc(/C(C)=N/OCc2ccc(C3CCCCC3)c(C(F)(F)F)c2)ccc1CN1CC(C(=O)O)C1 [Example 3, 1-{4-[1-(4-Cyclohexyl-3-trifluoromethyl-benzyloxyimino)-ethyl]-2-ethyl-benzyl}-azetidine-3-carboxylic acid] | 200 pM | 0.1 mg/kg

Source: US7939519B2, “Immunosuppresant compounds and compositions” (Novartis AG, priority 2003, dated 2011)
